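1) Cells in 96-well plates. 2) Compound, 48 h, 5 concentrations. 3) Linear interpolation between surrounding doses. 4) Unreached endpoint = highest concentration. The concentration for full growth arrest is given as TGI.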
Assays:
Experiment in all cases: inhibition of tumour cell growth, NCI panel, 48 h
A498 renal = test system: A498 renal
CAKI-1 renal = test system: CAKI-1 renal
CCRF-CEM leukemia = test system: CCRF-CEM leukemia
COLO 205 colon = test system: COLO 205 colon
HL-60(TB) leukemia = test system: HL-60(TB) leukemia
M14 melanoma = test system: M14 melanoma
MDA-MB-231 breast = test system: MDA-MB-231 breast
MOLT-4 leukemia = test system: MOLT-4 leukemia
NCI/ADR-RES ovarian = test system: NCI/ADR-RES ovarian
SF-295 CNS = test system: SF-295 CNS
SK-MEL-5 melanoma = test system: SK-MEL-5 melanoma
U251 CNS = test system: U251 CNS

Measured: TGI

c1ccc(CC2(c3cc4ccccc4[nH]3)OCCO2)nc1
> 100 µM: A498 renal | CAKI-1 renal | CCRF-CEM leukemia | COLO 205 colon | HL-60(TB) leukemia | M14 melanoma | MDA-MB-231 breast | MOLT-4 leukemia | NCI/ADR-RES ovarian | SF-295 CNS | SK-MEL-5 melanoma | U251 CNS

Reference: PubChem BioAssay (NCI)
